Measurements published in PubChem BioAssay (NCI).
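These data come from cells grown in 96-well plates and exposed to compound for 48 hours at five concentrations. TGI marks complete inhibition of growth.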

How the values were obtained:
Experiment in all cases: NCI tumour cell line growth inhibition, 48 h
HCT-116 colon = test system: HCT-116 colon
NCI-H226 lung = test system: NCI-H226 lung
RPMI-8226 leukemia = test system: RPMI-8226 leukemia
UO-31 renal = test system: UO-31 renal
NCI-H23 lung = test system: NCI-H23 lung
SK-OV-3 ovarian = test system: SK-OV-3 ovarian
COLO 205 colon = test system: COLO 205 colon
DMS 273 small cell lung = test system: DMS 273 small cell lung
K-562 leukemia = test system: K-562 leukemia
RXF-631 renal = test system: RXF-631 renal
OVCAR-8 ovarian = test system: OVCAR-8 ovarian
HOP-18 NSCLC = test system: HOP-18 NSCLC
HT29 colon = test system: HT29 colon
LXFL 529 NSCLC = test system: LXFL 529 NSCLC
A549 NSCLC = test system: A549 NSCLC
HCT-15 colon = test system: HCT-15 colon
UACC-257 melanoma = test system: UACC-257 melanoma
SW-620 colon = test system: SW-620 colon
XF 498 CNS = test system: XF 498 CNS
KM12 colon = test system: KM12 colon
SF-268 CNS = test system: SF-268 CNS
HOP-62 NSCLC = test system: HOP-62 NSCLC
MALME-3M melanoma = test system: MALME-3M melanoma
EKVX NSCLC = test system: EKVX NSCLC
SR leukemia = test system: SR leukemia
A498 renal = test system: A498 renal
SF-539 CNS = test system: SF-539 CNS
SK-MEL-28 melanoma = test system: SK-MEL-28 melanoma
SNB-78 CNS = test system: SNB-78 CNS
OVCAR-5 ovarian = test system: OVCAR-5 ovarian
HOP-92 NSCLC = test system: HOP-92 NSCLC
TK-10 renal = test system: TK-10 renal
SF-295 CNS = test system: SF-295 CNS
U251 CNS = test system: U251 CNS
SK-MEL-2 melanoma = test system: SK-MEL-2 melanoma
HL-60(TB) leukemia = test system: HL-60(TB) leukemia
DLD-1 colon = test system: DLD-1 colon
UACC-62 melanoma = test system: UACC-62 melanoma
OVCAR-3 ovarian = test system: OVCAR-3 ovarian
M14 melanoma = test system: M14 melanoma
MOLT-4 leukemia = test system: MOLT-4 leukemia
ACHN renal = test system: ACHN renal
786-0 renal = test system: 786-0 renal
KM20L2 colon = test system: KM20L2 colon
IGROV1 ovarian = test system: IGROV1 ovarian
NCI-H460 lung = test system: NCI-H460 lung
SNB-75 CNS = test system: SNB-75 CNS
SNB-19 CNS = test system: SNB-19 CNS
DMS 114 small cell lung = test system: DMS 114 small cell lung
CCRF-CEM leukemia = test system: CCRF-CEM leukemia
HCC-2998 colon = test system: HCC-2998 colon
NCI-H522 lung = test system: NCI-H522 lung
CAKI-1 renal = test system: CAKI-1 renal
SK-MEL-5 melanoma = test system: SK-MEL-5 melanoma
M19-MEL melanoma = test system: M19-MEL melanoma
OVCAR-4 ovarian = test system: OVCAR-4 ovarian
SN12C renal = test system: SN12C renal
LOX IMVI melanoma = test system: LOX IMVI melanoma

## Cc1cccc(C)c1NC(=O)CCCC(=O)C1/C(=N/NC(=O)CC#N)CCC/C1=N\NC(=O)CC#N (stereo not drawn)
HCT-116 colon
  TGI: > 100 µM
NCI-H226 lung
  TGI: > 100 µM
RPMI-8226 leukemia
  TGI: > 100 µM
UO-31 renal
  TGI: > 100 µM
NCI-H23 lung
  TGI: > 100 µM
SK-OV-3 ovarian
  TGI: > 100 µM
COLO 205 colon
  TGI: > 100 µM
DMS 273 small cell lung
  TGI: > 100 µM
K-562 leukemia
  TGI: > 100 µM
RXF-631 renal
  TGI: > 100 µM
OVCAR-8 ovarian
  TGI: > 100 µM
HOP-18 NSCLC
  TGI: > 100 µM
HT29 colon
  TGI: > 100 µM
LXFL 529 NSCLC
  TGI: > 100 µM
A549 NSCLC
  TGI: > 100 µM
HCT-15 colon
  TGI: > 100 µM
UACC-257 melanoma
  TGI: > 100 µM
SW-620 colon
  TGI: > 100 µM
XF 498 CNS
  TGI: > 100 µM
KM12 colon
  TGI: > 100 µM
SF-268 CNS
  TGI: > 100 µM
HOP-62 NSCLC
  TGI: > 100 µM
MALME-3M melanoma
  TGI: > 100 µM
EKVX NSCLC
  TGI: > 100 µM
SR leukemia
  TGI: > 100 µM
A498 renal
  TGI: > 100 µM
SF-539 CNS
  TGI: > 100 µM
SK-MEL-28 melanoma
  TGI: > 100 µM
SNB-78 CNS
  TGI: > 100 µM
OVCAR-5 ovarian
  TGI: > 100 µM
HOP-92 NSCLC
  TGI: > 100 µM
TK-10 renal
  TGI: > 100 µM
SF-295 CNS
  TGI: > 100 µM
U251 CNS
  TGI: > 100 µM
SK-MEL-2 melanoma
  TGI: > 100 µM
HL-60(TB) leukemia
  TGI: > 100 µM
DLD-1 colon
  TGI: > 100 µM
UACC-62 melanoma
  TGI: > 100 µM
OVCAR-3 ovarian
  TGI: > 100 µM
M14 melanoma
  TGI: > 100 µM
MOLT-4 leukemia
  TGI: > 100 µM
ACHN renal
  TGI: > 100 µM
786-0 renal
  TGI: > 100 µM
KM20L2 colon
  TGI: > 100 µM
IGROV1 ovarian
  TGI: > 100 µM
NCI-H460 lung
  TGI: > 100 µM
SNB-75 CNS
  TGI: > 100 µM
SNB-19 CNS
  TGI: > 100 µM
DMS 114 small cell lung
  TGI: > 100 µM
CCRF-CEM leukemia
  TGI: > 100 µM
HCC-2998 colon
  TGI: > 100 µM
NCI-H522 lung
  TGI: > 100 µM
CAKI-1 renal
  TGI: > 100 µM
SK-MEL-5 melanoma
  TGI: > 100 µM
M19-MEL melanoma
  TGI: > 100 µM
OVCAR-4 ovarian
  TGI: > 100 µM
SN12C renal
  TGI: > 100 µM

## COc1ccc(C)cc1-c1cc(Sc2ccccc2)c(-c2cc(C)ccc2OC)o1
HCT-116 colon
  TGI: > 31.6 µM
NCI-H226 lung
  TGI: > 31.6 µM
RPMI-8226 leukemia
  TGI: > 31.6 µM
UO-31 renal
  TGI: > 31.6 µM
NCI-H23 lung
  TGI: > 31.6 µM
SK-OV-3 ovarian
  TGI: > 31.6 µM
COLO 205 colon
  TGI: > 31.6 µM
DMS 273 small cell lung
  TGI: > 31.6 µM
K-562 leukemia
  TGI: > 31.6 µM
RXF-631 renal
  TGI: > 31.6 µM
OVCAR-8 ovarian
  TGI: > 31.6 µM
HOP-18 NSCLC
  TGI: > 31.6 µM
HT29 colon
  TGI: > 31.6 µM
LXFL 529 NSCLC
  TGI: > 31.6 µM
A549 NSCLC
  TGI: > 31.6 µM
HCT-15 colon
  TGI: > 31.6 µM
UACC-257 melanoma
  TGI: > 31.6 µM
SW-620 colon
  TGI: > 31.6 µM
XF 498 CNS
  TGI: > 100 µM
KM12 colon
  TGI: > 31.6 µM
SF-268 CNS
  TGI: > 31.6 µM
HOP-62 NSCLC
  TGI: > 31.6 µM
MALME-3M melanoma
  TGI: > 31.6 µM
EKVX NSCLC
  TGI: > 31.6 µM
LOX IMVI melanoma
  TGI: > 100 µM
A498 renal
  TGI: > 31.6 µM
SF-539 CNS
  TGI: > 31.6 µM
SK-MEL-28 melanoma
  TGI: > 31.6 µM
SNB-78 CNS
  TGI: > 31.6 µM
OVCAR-5 ovarian
  TGI: > 100 µM
HOP-92 NSCLC
  TGI: > 31.6 µM
TK-10 renal
  TGI: > 31.6 µM
SF-295 CNS
  TGI: > 100 µM
U251 CNS
  TGI: > 31.6 µM
HL-60(TB) leukemia
  TGI: > 31.6 µM
DLD-1 colon
  TGI: > 31.6 µM
UACC-62 melanoma
  TGI: > 31.6 µM
OVCAR-3 ovarian
  TGI: > 31.6 µM
M14 melanoma
  TGI: > 31.6 µM
MOLT-4 leukemia
  TGI: > 31.6 µM
ACHN renal
  TGI: > 31.6 µM
786-0 renal
  TGI: > 31.6 µM
KM20L2 colon
  TGI: > 31.6 µM
IGROV1 ovarian
  TGI: > 31.6 µM
NCI-H460 lung
  TGI: > 31.6 µM
SNB-75 CNS
  TGI: > 31.6 µM
SNB-19 CNS
  TGI: > 31.6 µM
DMS 114 small cell lung
  TGI: > 31.6 µM
CCRF-CEM leukemia
  TGI: > 31.6 µM
HCC-2998 colon
  TGI: > 31.6 µM
NCI-H522 lung
  TGI: > 31.6 µM
CAKI-1 renal
  TGI: > 31.6 µM
SK-MEL-5 melanoma
  TGI: > 31.6 µM
M19-MEL melanoma
  TGI: > 31.6 µM
OVCAR-4 ovarian
  TGI: > 31.6 µM
SN12C renal
  TGI: > 31.6 µM
